Measured values published in PMC8419995, “In vitro and in vivo efficacy of thiacloprid against Echinococcus multilocularis” (Parasites & Vectors, 2021).

Columns and labels:
[1] = tested on: IL-2, IL-4, IL-10 and IgE; assay: ELISA of cytokines and IgE in infected mice; assay type: in vivo; details: infected BALB/c mice, 6 weeks oral treatment
Procedure: In vitro-grown metacestode vesicles were pressed through a 500 µm mesh and washed three times with sterile PBS. The parasite tissue was then taken up in an equal volume of sterile PBS. Each mouse was intraperitoneally injected with 200 μl suspension. Seven mice were injected with 200 μl PBS as the control group. Twenty-eight infected mice were randomly distributed into four groups (7 mice/group): the untreated group was not administered any drug; the ABZ group was treated with ABZ orally (100 mg/kg/day); and the Thia15 group and Thia30 group received thiacloprid orally (15 mg/kg/day and 30 mg/kg/day). Treatments of mice started 2 weeks post-infection, and treatments were administered daily for 6 weeks. After 6 weeks of treatment, whole blood via the orbital sinus was collected from mice and the animals were euthanized by CO2. Blood samples were incubated at 37 °C for 1 h and centrifuged at 3500 rpm for 10 min at 4 °C. The serum was harvested and stored at –20 °C for IL-2, IL-4, IL-10 and IgE detection. All metacestode tissues were collected, and the total wet weight of metacestodes per mice was determined. Furthermore, the content of cytokines in microcyst fluid was detected by enzyme-linked immunosorbent assay (ELISA). Several metacestode tissue specimens were processed for transmission electron microscopy (TEM) and histopathological experiments.
ELISA was employed to detect serum IL-2, IL-4, IL-10 and IgE following the manufacturer's instructions. Mouse collagen I and collagen III ELISA kits were used to measure the levels of collagen I and collagen III in the cell culture supernatant after intervention with thiacloprid. All ELISA kits were provided by Elabscience Biotechnology Co., Ltd., Wuhan, China. The OD value at 450 nm was read with a Tecan Infinite M200 PRO enzyme reader (Männedorf, Switzerland), and the concentration was calculated according to the standard curve.

[2] = tested on: collagen I and III, MMP1, MMP3, MMP9, MMP13; assay: Collagen and MMP expression in the host-lesion microenvironment (TEM, Sirius red, qPCR, western blot); assay type: in vivo; details: infected BALB/c mice, 6 weeks oral treatment
Procedure: The metacestodes were fixed with 4% paraformaldehyde and embedded in paraffin to make sections with a thickness of […]. The sections were dewaxed with water, stained with Picrosirius red for 10 min, rinsed and dehydrated with anhydrous ethanol, and sealed with neutral balsam after the xylene was transparent. Each section of 400× visual field image was randomly collected. The ratio of the area of all images collected to the area of the visual field was measured using the ImageJ analysis system, and the percentage of collagen fibre was calculated.
The variations in the microstructure of the protoscoleces or metacestodes were observed under an electron microscope. […] They were washed twice in PBS and then fixed for 3 h with 2.5% glutaraldehyde (pH = 7.2); next, they underwent 2 h post-fixation in 2% OsO4 (SPI-CHEM, West Chester, PA, USA). Subsequently, the samples were washed in double-distilled water and treated with 1% uranyl acetate for 25 min. After the samples were washed again in double-distilled water, dehydration was conducted in ethanol at continuous gradients (30–50–70–80–90–95–100%) over a period of 10 min. For SEM analysis, the dehydrated samples were dipped into hexamethyldisiloxane and then air-dried in a fume hood. The sample was observed under a Hitachi SU8100 scanning electron microscope (Tokyo, Japan) after gold spraying. For TEM analysis, the dehydrated samples passed through a dehydrating agent, and an epoxy resin (SPI-CHEM) permeated and polymerized at 60 °C overnight. A 50-nm ultra-thin section was prepared and then loaded on a 300-mesh copper grid. It was stained with uranyl acetate and lead citrate (SPI-CHEM). The sample was observed under a Hitachi HT7700 transmission electron microscope. To reduce the bias, electron microscopy was observed by professionals in the case of an unknown group.
Total RNA was extracted with TRIzol Reagent (Thermo Fisher Scientific, Waltham, MA, USA) according to the manufacturer’s instructions. The purity and concentrations of RNA were quantified using NanoDrop 2000 absorbance measurements at 260/280 nm. Total RNA was converted into cDNA sequences using the FastKing gDNA Dispelling RT SuperMix Kit (TIANGEN Biotech), and RT-qPCR was performed using the RealUniversal Color PreMix Kit (TIANGEN Biotech) on an ABI QuantStudio 5 system (Applied Biosystems, Waltham, MA, USA). The specific primers are shown in Additional file 4: Table S1. The PCR cycling conditions were as follows: pre-denaturation at 95 °C for 15 min followed by 40 cycles at 95 °C for 10 s and 60 °C for 34 s. The relative mRNA expression levels were quantified using the 2^−ΔΔCT method. RPS18 served as an internal control.
A total protein extraction kit (Solarbio) was used to extract cell or tissue total protein. The protein concentration was determined by the protein quantitative assay kit (Thermo Fisher Scientific). Then, electrophoresis was performed with 20–50 μg of protein sample. The protein was separated by sodium dodecyl sulfate polyacrylamide gel electrophoresis (SDS-PAGE) and transferred to a 0.22 μm PVDF membrane (Merck Millipore, Darmstadt, Germany). The PVDF membrane was blocked with 5% of nonfat powdered milk in Tris-buffered saline Tween 20 (TBST) for 1 h at room temperature. The membrane incubation with primary antibodies was performed at 4 °C overnight. The antibody information is listed in Additional file 5: Table S2. The membrane was washed with TBST and incubated with HRP-labeled secondary antibodies (1:5000, Abclonal, Wuhan, China) for 1 h at room temperature. Blotted membranes were visualized using enhanced chemiluminescence reagents (Thermo Fisher Scientific). Protein expression was depicted as the intensity of each protein relative to that of β-actin using ImageJ software.

Which results are given for `N#C/N=C1\SCCN1Cc1ccc(Cl)nc1` [thiacloprid]?
Expression of IL-2, IL-4 and IL-10 in microcyst fluid [1]: upregulated; Expression of IL-2, IL-4 and IL-10 in serum compared with the untreated group [1]: upregulated; Expression of IgE in serum compared with the untreated group [1]: downregulated; Collagen fiber deposition in the host-lesion microenvironment (TEM) [2]: can promote; mRNA expression of MMP1, MMP3, MMP9 and MMP13 in the microenvironment ([2]; qPCR): significantly inhibited; mRNA and protein expression levels of collagen I and III in the host-lesion microenvironment ([2]; qPCR, western blot): increased; Protein expression levels of MMP1, MMP3, MMP9 and MMP13 ([2]; western blot): decreased
